{"source": "paper PMC4427575", "about": "“Functional screening system for yeast-secreted peptides acting on G-protein coupled receptors” (AMB Express, 2015)", "tested_on": "class A GPCR SST receptor", "test": "Effect of FLAG fusion on somatostatin (data not shown)", "details": "result in words"}
{"substance": "somatostatin with FLAG fusion: FLAG fusion of somatostatin, endogenous circular peptide agonist acting on class A GPCR SST receptor", "values": [{"measurement": "effect of the FLAG fusion", "value": "beneficial effect"}]}
